Data on 13 compounds can be found in ChEMBL document CHEMBL1201862, “PubChem BioAssay data set” (2004).

The target of one assay is Melanocortin receptor 4 (Homo sapiens, UniProt P32245). Type of assay: functional, cell-based.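 Note: Cell-based assay with luminescence read-out, confirmatory dose-response testing for agonist activity of biased ligands at MC4R; human U2OS cells with tagged receptor and beta-arrestin; potency of agonists that increase receptor coupling to beta-arrestin.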
Assay [1] addresses 72 kDa type IV collagenase (Homo sapiens, UniProt P08253). Description: Dose Response validation of uHTS RPN11 inhibitor hits using a MMP-2 Fluorescence assay. The assay is classed as functional.
The target in a further assay is Prothrombin (Bos taurus, UniProt P00735). As to the kind of experiment: thrombin protease inhibitors – biochemical, fluorescence polarization, uHTS hits, dose response (AID 602369). The assay is classed as functional.
Assay [2] deals with 26S proteasome non-ATPase regulatory subunit 14 (Homo sapiens, UniProt O00487). As to the kind of experiment: inhibition of proteasome subunit RPN11 – biochemical, fluorescence polarization, uHTS hits, confirmation (AID 602368). Type of assay: functional. In general terms: Fluorescence polarisation rises when a labelled molecule tumbles more slowly, as on binding a larger partner.

Assay [3] concerns the target T1, Endoribonuclease toxin MazF (Escherichia coli K-12, UniProt P0AE70).
T1 sequence (P0AE70 whole entry): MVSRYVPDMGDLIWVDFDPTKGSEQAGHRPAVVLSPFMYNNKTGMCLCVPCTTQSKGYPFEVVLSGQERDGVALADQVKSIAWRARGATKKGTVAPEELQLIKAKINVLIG
As to the kind of experiment: activation of MazEF endoribonuclease cleavage – biochemical, fluorescence, single-stranded RNA substrate, uHTS hits, dose response (AID 588481). The assay is classed as functional.

In assay [4] the target is T1, Endoribonuclease toxin MazF. Description: substrate-only fluorescence increase artefacts – biochemical, single-stranded RNase substrate, counter-screen for MazEF activator project, dose response (AID 588502). The assay is classed as functional. (In general: A counterscreen serves to expose hits that act by an unwanted route or on another target.)
Another assay deals with T2, Protein skinhead-1 (Caenorhabditis elegans, UniProt P34707).
T2 sequence (P34707 whole entry): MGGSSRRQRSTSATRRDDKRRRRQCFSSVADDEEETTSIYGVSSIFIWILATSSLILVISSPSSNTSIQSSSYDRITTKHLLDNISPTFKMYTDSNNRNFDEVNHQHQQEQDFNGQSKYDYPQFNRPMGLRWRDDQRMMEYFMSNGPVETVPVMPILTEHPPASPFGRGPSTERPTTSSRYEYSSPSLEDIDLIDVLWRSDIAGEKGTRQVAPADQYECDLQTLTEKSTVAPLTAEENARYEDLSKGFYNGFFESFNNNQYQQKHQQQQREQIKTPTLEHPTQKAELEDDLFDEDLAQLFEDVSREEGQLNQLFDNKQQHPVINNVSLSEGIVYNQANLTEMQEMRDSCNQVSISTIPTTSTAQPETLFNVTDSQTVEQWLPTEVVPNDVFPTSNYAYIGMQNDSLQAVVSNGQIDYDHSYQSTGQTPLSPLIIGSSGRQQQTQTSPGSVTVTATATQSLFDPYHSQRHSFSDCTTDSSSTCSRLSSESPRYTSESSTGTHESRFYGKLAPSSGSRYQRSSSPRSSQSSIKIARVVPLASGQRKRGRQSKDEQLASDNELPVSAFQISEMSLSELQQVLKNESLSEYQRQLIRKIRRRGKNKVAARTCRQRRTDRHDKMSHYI
Type of assay: functional.

For the next assay, the system named is H9c2. As to the kind of experiment: cells. As to conditions: Rattus norvegicus, H9c2, Myocardium. The assay is classed as functional, cell-based.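 Note: confirmatory concentration-response retest of ultra-high-throughput screening hits for modulation of myocardial damage; cell death induced by hydrogen peroxide oxidative stress; compound pretreatment for 60 min then peroxide exposure for 2 h; potency is for protecting the cells against peroxide damage rather than for killing them.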
Assay [5] concerns the target T3, RNA-binding protein pos-1 (Caenorhabditis elegans, UniProt G5EF15).
T3 sequence (G5EF15 whole entry): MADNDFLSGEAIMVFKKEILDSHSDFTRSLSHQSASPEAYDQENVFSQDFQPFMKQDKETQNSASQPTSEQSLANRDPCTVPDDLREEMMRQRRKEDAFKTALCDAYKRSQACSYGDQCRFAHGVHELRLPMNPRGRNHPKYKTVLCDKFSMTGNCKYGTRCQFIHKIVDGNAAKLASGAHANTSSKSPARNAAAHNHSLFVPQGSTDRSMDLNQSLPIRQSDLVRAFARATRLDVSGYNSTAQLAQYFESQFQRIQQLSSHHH
Description: disruptors of C. elegans POS-1 RNA interaction – biochemical, fluorescence polarization, dose response (AID 1964).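 Note: purified POS-1 fused to maltose binding protein made in E. coli; potency of compounds blocking POS-1 binding to fluorescent RNA.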

Assay [6] has as its target T4, Zinc finger protein mex-5 (Caenorhabditis elegans, UniProt Q9XUB2).
T4 sequence (Q9XUB2 whole entry): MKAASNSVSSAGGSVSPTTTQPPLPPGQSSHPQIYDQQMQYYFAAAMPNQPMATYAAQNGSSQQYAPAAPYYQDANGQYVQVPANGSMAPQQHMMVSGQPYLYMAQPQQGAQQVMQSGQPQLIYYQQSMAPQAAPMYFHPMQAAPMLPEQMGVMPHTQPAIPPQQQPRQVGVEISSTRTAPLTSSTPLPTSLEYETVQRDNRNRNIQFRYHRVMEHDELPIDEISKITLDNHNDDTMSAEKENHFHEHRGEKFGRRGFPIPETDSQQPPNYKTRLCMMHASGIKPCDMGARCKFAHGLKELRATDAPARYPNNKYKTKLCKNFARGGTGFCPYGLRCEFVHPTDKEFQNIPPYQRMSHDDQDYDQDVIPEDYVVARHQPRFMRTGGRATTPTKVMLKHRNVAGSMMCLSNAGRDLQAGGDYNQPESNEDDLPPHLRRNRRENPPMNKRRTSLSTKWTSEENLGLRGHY
As to the kind of experiment: potency of MEX-5 RNA-binding blockers – biochemical, C. elegans, fluorescence polarization, dose response (AID 1960).

Assay [7] in a line: NIH-3T3 fibroblast cytotoxicity, dose response, cytotoxicity control, cell-based, fluorescence, Alamar Blue, secondary assay (AID 2327).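 Note: NIH-3T3 mouse fibroblasts cultured with fluconazole at 8 µg/mL.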 Type of assay: functional. (In general: Resazurin is reduced to fluorescent resorufin, in cell work by metabolically active cells.)
The next assay has as its system INS1. Description: INS-1E survival protection against cytokine death – cell-based, luminescence, retest, dose response (AID 449756).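 Note: cell death triggered by IL-1 beta plus TNF-alpha plus IFN-gamma mixture; protective hits raise ATP signal compared with cytokine alone wells.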 Type of assay: functional. The settings on record: Rattus norvegicus.
The nature of assay [8]: fluconazole-exposed Candida albicans growth modulators – fluorescence, retest, confirmation (AID 2467). Type of assay: functional, cell-based.
The target in assay [9] is T5, Microphthalmia-associated transcription factor (Homo sapiens, UniProt O75030).
T5 sequence (O75030 whole entry): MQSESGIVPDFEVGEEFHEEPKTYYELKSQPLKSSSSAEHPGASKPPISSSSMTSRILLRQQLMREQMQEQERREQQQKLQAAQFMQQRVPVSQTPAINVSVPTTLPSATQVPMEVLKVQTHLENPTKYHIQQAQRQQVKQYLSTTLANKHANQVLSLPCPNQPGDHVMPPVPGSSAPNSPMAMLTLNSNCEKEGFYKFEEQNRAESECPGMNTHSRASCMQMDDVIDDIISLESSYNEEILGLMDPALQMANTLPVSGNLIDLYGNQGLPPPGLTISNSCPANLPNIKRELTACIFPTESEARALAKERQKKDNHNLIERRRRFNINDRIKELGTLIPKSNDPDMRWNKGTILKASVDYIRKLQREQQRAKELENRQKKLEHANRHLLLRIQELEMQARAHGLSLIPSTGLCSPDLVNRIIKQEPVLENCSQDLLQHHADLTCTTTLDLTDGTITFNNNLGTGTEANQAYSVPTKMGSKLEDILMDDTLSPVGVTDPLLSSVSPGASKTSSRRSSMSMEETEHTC
As to the kind of experiment: reducers of TRPM1 reporter luminescence, concentration series – cell-based, SK-MEL-5, cherry-picked, set 3, MITF inhibitor project, dose response (AID 493073).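 Note: SK-MEL-5 melanoma cells with luciferase driven by the MITF target TRPM1 promoter.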 The assay is classed as functional.

Assay [10] deals with T6, Mannose-6-phosphate isomerase (Homo sapiens, UniProt P34949).
T6 sequence (P34949 whole entry): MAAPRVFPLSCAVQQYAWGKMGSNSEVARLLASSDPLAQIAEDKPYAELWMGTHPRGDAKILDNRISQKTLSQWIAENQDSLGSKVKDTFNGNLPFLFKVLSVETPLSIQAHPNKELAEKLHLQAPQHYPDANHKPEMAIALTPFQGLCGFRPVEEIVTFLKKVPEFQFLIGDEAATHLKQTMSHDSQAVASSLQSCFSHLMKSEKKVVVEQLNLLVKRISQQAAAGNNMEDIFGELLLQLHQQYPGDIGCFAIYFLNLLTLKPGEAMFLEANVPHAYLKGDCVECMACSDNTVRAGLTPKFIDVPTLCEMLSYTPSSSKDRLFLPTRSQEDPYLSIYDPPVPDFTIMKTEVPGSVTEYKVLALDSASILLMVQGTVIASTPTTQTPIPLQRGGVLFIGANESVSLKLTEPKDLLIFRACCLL
Description: MPI inhibition at elevated mannose 6-phosphate – biochemical, fluorescence intensity, high mannose 6-phosphate, primary screen (AID 1220).

Assay [11] can be described thus: viability loss in HeLa cells – cytotoxicity control for MgcRacGAP inhibitor project, dose response (AID 624300). Type of assay: functional.
In assay [12] the target is T7, Rac GTPase-activating protein 1 (Homo sapiens, UniProt Q9H0H5).
T7 sequence (Q9H0H5 whole entry): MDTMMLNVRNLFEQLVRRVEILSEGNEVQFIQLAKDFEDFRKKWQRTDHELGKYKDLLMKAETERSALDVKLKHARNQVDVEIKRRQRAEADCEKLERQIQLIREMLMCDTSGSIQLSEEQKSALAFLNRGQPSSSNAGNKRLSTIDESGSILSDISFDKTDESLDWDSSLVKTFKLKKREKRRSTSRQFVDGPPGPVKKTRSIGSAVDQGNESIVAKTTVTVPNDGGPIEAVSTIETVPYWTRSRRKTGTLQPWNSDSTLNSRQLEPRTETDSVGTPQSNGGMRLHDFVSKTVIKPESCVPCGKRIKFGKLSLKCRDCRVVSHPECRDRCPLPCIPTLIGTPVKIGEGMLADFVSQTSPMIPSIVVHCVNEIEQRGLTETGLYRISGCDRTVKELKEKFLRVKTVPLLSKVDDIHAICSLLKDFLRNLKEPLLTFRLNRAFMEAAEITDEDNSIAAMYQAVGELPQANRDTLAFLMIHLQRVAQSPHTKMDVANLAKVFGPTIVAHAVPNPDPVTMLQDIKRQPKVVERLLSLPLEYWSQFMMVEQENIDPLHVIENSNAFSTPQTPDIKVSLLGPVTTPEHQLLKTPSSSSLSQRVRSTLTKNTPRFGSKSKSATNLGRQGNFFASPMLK
As to the kind of experiment: blockers of MgcRacGAP-driven Rac1 GTP hydrolysis – biochemical, ADP Hunter fluorescence, primary and confirmatory, confirmation (AID 624330). The assay is classed as functional.

Active and inactive are the calls of the source.

26S proteasome non-ATPase regulatory subunit 14, sequence (O00487 whole entry): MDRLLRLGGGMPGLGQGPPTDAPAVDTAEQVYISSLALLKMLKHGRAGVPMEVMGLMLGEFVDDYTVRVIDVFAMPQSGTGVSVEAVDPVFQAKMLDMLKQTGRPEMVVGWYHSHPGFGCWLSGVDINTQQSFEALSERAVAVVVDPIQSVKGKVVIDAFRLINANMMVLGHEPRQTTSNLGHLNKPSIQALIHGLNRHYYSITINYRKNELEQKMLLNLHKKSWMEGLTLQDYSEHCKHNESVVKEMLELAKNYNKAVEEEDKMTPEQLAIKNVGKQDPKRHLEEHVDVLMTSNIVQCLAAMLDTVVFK
72 kDa type IV collagenase, sequence (P08253 whole entry): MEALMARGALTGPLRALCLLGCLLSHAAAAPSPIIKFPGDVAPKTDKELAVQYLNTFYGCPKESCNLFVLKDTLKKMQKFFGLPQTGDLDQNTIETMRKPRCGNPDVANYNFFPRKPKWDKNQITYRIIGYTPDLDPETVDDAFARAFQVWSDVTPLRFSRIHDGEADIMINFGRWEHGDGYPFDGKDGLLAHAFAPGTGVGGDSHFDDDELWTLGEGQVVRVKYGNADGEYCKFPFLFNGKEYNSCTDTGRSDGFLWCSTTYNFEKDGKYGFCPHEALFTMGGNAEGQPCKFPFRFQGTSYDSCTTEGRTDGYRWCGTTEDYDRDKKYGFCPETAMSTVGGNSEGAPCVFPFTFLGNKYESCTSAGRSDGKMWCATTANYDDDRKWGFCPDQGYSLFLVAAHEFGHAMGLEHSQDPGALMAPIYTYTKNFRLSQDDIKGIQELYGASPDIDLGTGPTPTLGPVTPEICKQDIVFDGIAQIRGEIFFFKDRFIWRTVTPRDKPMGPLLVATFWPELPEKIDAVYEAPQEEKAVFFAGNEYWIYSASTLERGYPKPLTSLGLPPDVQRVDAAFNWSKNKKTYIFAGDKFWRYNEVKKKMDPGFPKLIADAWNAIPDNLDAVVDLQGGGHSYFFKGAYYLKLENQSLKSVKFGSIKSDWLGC
Melanocortin receptor 4, sequence (P32245 whole entry): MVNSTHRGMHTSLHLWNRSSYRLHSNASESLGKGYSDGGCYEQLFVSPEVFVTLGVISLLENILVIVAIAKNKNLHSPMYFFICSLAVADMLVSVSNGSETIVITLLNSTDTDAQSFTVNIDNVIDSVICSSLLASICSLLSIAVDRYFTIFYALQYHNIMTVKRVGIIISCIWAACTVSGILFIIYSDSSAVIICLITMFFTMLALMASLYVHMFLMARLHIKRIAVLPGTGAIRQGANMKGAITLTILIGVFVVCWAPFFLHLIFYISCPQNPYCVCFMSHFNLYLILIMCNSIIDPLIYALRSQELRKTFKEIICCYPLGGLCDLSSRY

For `C1COCCO1.Cc1cc(C)c2nc(Nc3nc(O)cc(-c4ccccc4)n3)nc(C)c2c1`, the EC50 (usually the concentration needed to bring the measured effect to its halfway point) at Melanocortin receptor 4 is > 89.2 µM (inactive).

With `O=C(c1ccc(COc2ccc(Br)cc2)o1)N1N=C(C(F)F)CC1(O)C(F)F` (configuration not stated), the EC50 on Melanocortin receptor 4 is > 89.2 µM (inactive).

In the case of `CCOc1ccc(C(=O)CCC(=O)N2CCN(c3ncccn3)CC2)cc1`, the IC50 (commonly the concentration needed to halve the response being measured) in [1] is 83.5 µM (active); at Prothrombin it was 34.3 µM (active); in assay [2], 38.6 µM (active).

In the case of `Cc1ccccc1C(=O)/C=C1/SCC(=O)N1C`, the IC50 in [1] was > 100 µM (inactive); on Prothrombin, 37.3 µM (active); in [2] it was 18.9 µM (active).

As for `COc1ccc(-c2ccc(/C=C3/C(=N)N4C(C)=CSC4=NC3=O)o2)c([N+](=O)[O-])c1`, the EC50 is > 99 µM (inactive) in assay [3] and 29 µM (inactive) in assay [4]. In addition, on Protein skinhead-1, the IC50 was > 100 µM (inactive).

Take `COc1ccc(-c2cc(NC(C)=O)c3ncc(-c4ccc(OC)c(OC)c4)n3c2)cc1OC`: the IC50 in the assay with H9c2 is > 79 µM (inactive). For the same compound, the EC50 at Melanocortin receptor 4 is > 89.2 µM (inactive).

Regarding `CC(C)Oc1ccc(/C=C(\NC(=O)/C=C/c2ccco2)C(=O)NCCc2nc3ccccc3[nH]2)cc1`, the IC50 in [1] is > 100 µM (inactive); on Prothrombin, 55.6 µM (active); in assay [2], 57.5 µM (active).

As for `Oc1nc2ccccc2nc1/C=C/c1ccc(F)cc1`, the EC50 in assay [3] was 15.6 µM (active); in [4], > 99 µM (inactive); in assay [5], 41.9 µM (inconclusive); in [6] it was > 300 µM (not active).

`CC1CCC(C(C)C)C(OC(=O)C[n+]2cc(-c3ccc(Cl)cc3)n3c2CCCCC3)C1` (configuration not stated): the values for the EC50 (in [7]; in assay [8]; at Melanocortin receptor 4) were > 160 µM (inactive), 0.459 µM (active) and > 9.91 µM (active), respectively. For the same compound, the figures for the concentration at half-maximal activity (AC50) (in the assay on INS1; in assay [9]) were 4.91 µM (active) and 6.97 µM (active), respectively.

Consider `Cc1cccc(NC(=S)NC(=O)C(c2ccccc2)c2ccccc2)n1`, for which the EC50 on Melanocortin receptor 4 was > 89.2 µM (inactive).

With `COCc1n[nH]c2c1C(c1cc(OC)c(O)c(OC)c1)C(C#N)=C(N)O2` (configuration not stated), the EC50 in assay [3] and in assay [4] was > 99 µM (inactive) throughout. Also, the IC50 in assay [10] is > 50 µM (not active).

Regarding `CN(C)c1ccc(Sc2ccc3nc(N)nc(N)c3c2)cc1`, the CC50 (commonly the concentration that lowers cell viability or growth by half) in assay [11] is 100 µM (active). Further, in assay [12], the IC50 was 50.2 µM (active).

On to `Cc1cccnc1C(c1ccc(F)cc1)N(C)C(=O)C1CCN(CCOc2ccc(Cl)cc2Cl)CC1` (configuration not stated), for which the EC50 on Melanocortin receptor 4 is > 89.2 µM (inactive).
